For this assay, the system named is FcεRI α- and γ-chains mRNA. The assay is described as follows: mRNA transcription level of FcεRI α- and γ-chains in KU812 cells (RT-PCR, Southern hybridization). The following applies: serum-free, G3PDH control. The assay is classed as cell-based, human. As for the experimental part: The mRNA expression of each of the FcεRI α- and γ-chains was detected by RT-PCR and southern hybridization using specific probes. G3PDH (glyceraldehyde-3-phosphate dehydrogenase) was employed as a control.
KU812 cells (1×10^6 cells/mL) were incubated under serum-free conditions in RPMI 1640 medium to which chrysin had been added. After incubating, the cells were washed with PBS once and then completely lysed by adding 1 mL of Trizol (Invitrogen) per 1×10^7 cells and quickly suspending. After allowing to stand at room temperature for 5 min, 0.2 mL of chloroform was added and the mixture was vigorously stirred and overturned. […] The concentration of the total RNA diluted 50-fold with water was measured using a wavelength of 260 nm. […]
The PCR mixture was prepared by mixing 1 μL of the cDNA, 0.8 μL of 2 mM dNTP, 0.6 μL of MgCl2, 0.5 μL of […] sense primer, 0.5 μL of 20 μM antisense primer, 0.1 μL of Taq DNA polymerase (Fermentas) and 1 μL of 10× Taq buffer accompanying Taq DNA polymerase and adjusting the total volume to 10 μL with distilled water. […] Next, amplification was conducted in 13 to 15 cycles (each cycle consisting of 1 min at 95° C., 1 min at 60° C. and 1 min at 72° C. The PCR product was electrophoresed on a 1% agarose gel and the amplified DNA was detected by Southern blotting. […]

For the molecule `O=c1cc(-c2ccccc2)oc2cc(O)cc(O)c12` [Chrysin, 5,7-dihydroxyflavone], the “expression of FcεRI at the mRNA level” value was “suppressed”.

These data come from patent US20080262080A1, “Allergy Suppressive Agent” (KYUSHU UNIVERSITY, NATIONAL UNIVERSITY CORPORATION, priority 2004, published 2008).
